# Laboratory results published in BindingDB's records for patent US11447504 (Bayer Aktiengesellschaft; Bayer Pharma Aktiengesellschaft; …, 2022).
# Values joined by “and” are separate entries in the source; they are usually repeats but may differ in a detail not shown here. Identical values can stand only once.
# Target: T1, Induced myeloid leukemia cell differentiation protein Mcl-1 [K194A,K197A,R201A] (Homo sapiens, UniProt Q07820, K194A/K197A/R201A)
# T1 construct: gene MCL1
# Assay: MCL-1/Noxa BH3 Peptide (MCL-1 Assay)
# Experimental: The dose-dependent inhibition by the compounds described in this invention of the interaction between MCL-1 and the BH3 domain of Noxa (both human) was determined using a steady state binding competition assay with time-resolved fluorescence energy transfer (TR-FRET) readout. […] The MBP-MCL-1 was purchased from Beryllium (Bedford, Mass., USA). […] The Noxa BH3-derived peptide can be obtained from e.g. Biosyntan (Berlin, Germany).
# T1 sequence (Q07820 whole entry K194A/K197A/R201A, looked up): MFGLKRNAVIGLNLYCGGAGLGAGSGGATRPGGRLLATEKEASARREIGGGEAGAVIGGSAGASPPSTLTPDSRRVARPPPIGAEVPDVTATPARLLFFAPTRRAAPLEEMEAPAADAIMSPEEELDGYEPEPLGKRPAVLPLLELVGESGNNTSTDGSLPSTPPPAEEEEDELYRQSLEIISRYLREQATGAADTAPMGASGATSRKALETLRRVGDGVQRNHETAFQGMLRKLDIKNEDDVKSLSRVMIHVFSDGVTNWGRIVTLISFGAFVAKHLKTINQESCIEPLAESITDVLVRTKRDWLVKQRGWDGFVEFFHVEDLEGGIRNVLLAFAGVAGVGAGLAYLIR
row,Compound,IC50
1,"Cc1c2c(nn1C)N(C)CCCCCn1c(C(=O)O)c(CCCOc3cccc4ccccc34)c3ccc(Cl)c-2c31 [US11447504, Example 71]",2.2 nM
2,"CCc1c2c(nn1C)N(C)CCCCCn1c(C(=O)O)c(CCCOc3cccc4cc(F)ccc34)c3ccc(Cl)c-2c31 [US11447504, Example 77]",2.1 nM and 6.4 nM
